Columns and labels:
Tetranychus urticae = test: Test Example 1: spray test against Tetranychus urticae on brush bean, Controlling Rate; assay type: in vivo; settings: 200 ppm, 30 ml sprayed over brush bean (Phaseolus vulgaris) with female adults
Experimental: The formulation obtained according to Formulation Example 1 using the present invention compounds (1) to (30) and the comparative compound (a) described below respectively, was diluted with water so that the concentration of the present invention compound or the comparative compound came to 200 ppm. About twenty female adults of Tetranychus urticae were set free on brush bean (Phaseolus vulgaris) in the primary leaf stage, which had been potted in a plastic cup for 7 days after the seeding. After 1 day, a 30 ml of the diluted formulation described-above was sprayed over the plant. On the 8th and 13th day after the application, the numbers of lived Tetranychus urticae on the leaf of brush bean plant were examined, and the Controlling Rates were calculated by the following scheme. Controlling Rate=100×{1−(a number of lived Tetranychus urticae in the treatment)/(a number of lived Tetranychus urticae in the non-treatment)}

[1] = test system: Adoxophyes orana fasciata; test: Test Example 2: spray test on apple seedling against first-instar larvae of Adoxophyes orana fasciata, rate of dead pests; assay type: in vivo; settings: 200 ppm, 30 ml sprayed over apple seedling, 7th day after application
Experimental: The formulation obtained according to Formulation Example 1 using the present invention compound (25): [drawing 138] and the comparative compound (b) described below respectively, was diluted with water so that the concentration of the present invention compound or the comparative compound came to 200 ppm. 30 ml of the diluted formulation described above was sprayed over the seedling of apple, which had been potted in plastic cup for 28 days after seeding about 15 cm height. After the sprayed solution was dried, about sixty first-instar larvae of Adoxophyes orana fasciata were set free on the apple seedling. On the 7 th day after application, the number of surviving or dyed Adoxophyes orana fasciata on the apple seedling was examined, and the rate of dead pests was calculated.

SMILES	Controlling Rate (Tetranychus urticae; 8th day after the application)	Controlling Rate (Tetranychus urticae; 13th day after the application)	rate of dead pests [1]
Cc1nn(C)c(Oc2ccc(Oc3ccc(C(F)(F)F)cc3)cc2)c1C=NOCc1ccccc1 [comparative compound (a)]	less than 30%	less than 30%	
Cc1nn(C)c(Oc2ccc(Oc3ccc(C(F)(F)F)cc3)cc2)c1C=O [comparative compound (b)]			less than 80%
C=CCOc1ccc(Oc2ccc(Oc3c(C)c(C)nn3C)cc2)cc1 [present invention compound (25)]			≥ 90%
